This test has as its system hexokinase from Saccharomyces cerevisiae. Kind of test: initial rates of ADP generation monitored with 5-ATR-ParM biosensor. The class given is biochemical. The conditions noted are these: read-out: KM^glucose; 1 mM ATP, 50 mM Tris-HCl pH 7.5, 25 mM KCl, 10 mM MgCl2, 20 °C.

Each structure is given as a SMILES string.

By Km is commonly meant the concentration of substrate that gives half-maximal velocity.

For the compound `OC[C@H]1OC(O)[C@H](O)[C@@H](O)[C@@H]1O` (stereo partly drawn) [D-glucose], the Km worked out at 180 ± 9 µM.

The values above are taken from publication PMC2855616 (ACS Chemical Biology, 2010).
